Reference: the Kinase Knowledgebase extract (Sharma et al. 2016)

These molecules were tested against PIK3CD (Human) (UniProt O00329) (assay: Assessment of PIK3CD Kinase Activity).
PIK3CD (Human), sequence (O00329 whole entry, looked up): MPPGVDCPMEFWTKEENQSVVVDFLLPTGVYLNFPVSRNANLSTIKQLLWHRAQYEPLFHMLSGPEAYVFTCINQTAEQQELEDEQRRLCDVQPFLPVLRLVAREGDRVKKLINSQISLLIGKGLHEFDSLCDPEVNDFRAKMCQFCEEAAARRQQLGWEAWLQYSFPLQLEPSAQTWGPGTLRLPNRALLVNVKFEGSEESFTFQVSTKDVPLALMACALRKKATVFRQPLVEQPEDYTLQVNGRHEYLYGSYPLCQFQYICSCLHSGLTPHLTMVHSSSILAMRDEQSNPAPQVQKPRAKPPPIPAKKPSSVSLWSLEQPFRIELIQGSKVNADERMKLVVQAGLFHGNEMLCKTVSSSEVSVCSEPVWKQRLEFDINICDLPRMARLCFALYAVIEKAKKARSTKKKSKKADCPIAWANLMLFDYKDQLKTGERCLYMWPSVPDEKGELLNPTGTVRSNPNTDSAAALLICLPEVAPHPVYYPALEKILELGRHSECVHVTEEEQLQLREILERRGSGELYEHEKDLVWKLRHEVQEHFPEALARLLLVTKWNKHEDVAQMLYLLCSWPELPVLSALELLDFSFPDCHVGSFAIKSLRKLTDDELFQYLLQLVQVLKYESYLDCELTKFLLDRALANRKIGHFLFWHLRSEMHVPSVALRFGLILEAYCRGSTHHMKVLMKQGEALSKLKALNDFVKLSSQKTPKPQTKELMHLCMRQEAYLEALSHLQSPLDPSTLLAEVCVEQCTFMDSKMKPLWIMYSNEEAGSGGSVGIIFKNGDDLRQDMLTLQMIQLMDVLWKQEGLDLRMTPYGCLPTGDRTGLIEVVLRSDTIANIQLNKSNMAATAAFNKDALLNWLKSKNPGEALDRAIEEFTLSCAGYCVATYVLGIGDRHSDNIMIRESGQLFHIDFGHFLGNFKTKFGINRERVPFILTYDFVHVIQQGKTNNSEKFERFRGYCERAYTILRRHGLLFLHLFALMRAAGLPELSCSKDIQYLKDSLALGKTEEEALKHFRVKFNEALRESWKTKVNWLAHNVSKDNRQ

First: Cn1c(C(=O)NCC2CC2)nc2c(N3CCC(C4C(=O)Nc5ccccc54)CC3)ncnc21 (centres undefined)
Second: Cn1c(C(=O)NCC2CC2)nc2c(N3CCC(n4c(=O)[nH]c5ccccc54)CC3)ncnc21
The IC50 of the first is higher: 250 to 500 nM for the first, 50 to 250 nM for the second. The second is the more potent here.

CN1CCN(c2cccc3c2[nH]c(=O)n3C2CCN(c3ncnc4c3nc(C(=O)NCC3CC3)n4C)CC2)CC1 and COc1cccc2c1[nH]c(=O)n2C1CCN(c2ncnc3c2nc(C(=O)NCC2CC2)n3C)CC1 fall in the same range of IC50: 50 to 250 nM for the first, 50 to 250 nM for the second.

CN(C)c1ccc(-c2nc3c(N4CCC(n5c(=O)[nH]c6ccccc65)CC4)ncnc3n2C)cn1 and Cn1c(-c2cn[nH]c2)nc2c(N3CCC(n4c(=O)[nH]c5ccccc54)CC3)ncnc21 cannot be ordered by IC50: < 50 nM for the first, < 50 nM for the second.

Cc1c(-c2nc3c(N4CCC(n5c(=O)[nH]c6c(F)cccc65)CC4)ncnc3n2C)cnn1C and CCCn1cc(-c2nc3c(N4CCC(n5c(=O)[nH]c6ccccc65)CC4)ncnc3n2CC)cn1 cannot be ordered by IC50: < 50 nM for the first, < 50 nM for the second.

First: CCn1c(-c2cn[nH]c2)nc2c(N3CCC(n4c(=O)[nH]c5ccccc54)CC3)ncnc21
Second: Cn1c(C(=O)N2CC[C@@H](F)C2)nc2c(N3CCC(n4c(=O)[nH]c5ccccc54)CC3)ncnc21
The IC50 of the first is lower: < 50 nM for the first, 50 to 250 nM for the second.

Cn1c(C(=O)NCC2CC2)nc2c(N3CCC(n4c(N)nc5ccccc54)CC3)ncnc21 and CC1CN(c2ncnc3c2nc(C(=O)NCC2CC2)n3C)CCC1n1c(=O)[nH]c2ccccc21 (centres undefined) fall in the same range of IC50: 50 to 250 nM for the first, 50 to 250 nM for the second.

Cc1cccc(-n2ncc3c2CCN(c2ncnc4c2nc(C(=O)NCC2CC2)n4C)C3)c1 and Cc1ccc(-n2ncc3c2CCN(c2ncnc4c2nc(C(=O)NCC2CC2)n4C)C3)c(C)c1 fall in the same range of IC50: 500 to 1500 nM for the first, 500 to 1500 nM for the second.

Cc1cccc(C)c1-n1ncc2c1CCN(c1ncnc3c1nc(C(=O)NCC1CC1)n3C)C2 and Cc1ccccc1-n1ncc2c1CCN(c1ncnc3c1nc(C(=O)NCC1CC1)n3C)C2 fall in the same range of IC50: 500 to 1500 nM for the first, 500 to 1500 nM for the second.

First: Cn1c(C(=O)NCC2CC2)nc2c(N3CCc4c(cnn4-c4ccccc4)C3)ncnc21
Second: CN(C)C1CN(C(=O)c2nc3c(N4CCC5(CC4)C(=O)NCN5c4ccccc4)ncnc3n2C)C1
The IC50 of the first is lower: 250 to 500 nM for the first, 500 to 1500 nM for the second. The first is the more potent here.

Molecule COc1ccc(S(=O)(=O)N2CCN(c3ncnc4c3nc(-c3cnn(C)c3)n4C)CC2)cc1 has an IC50 of 500 to 1500 nM.
